# Experimental data as given in patent US20260151413A1, “ANTICANCER DRUG CONJUGATES” (Ariel Scientific Innovations Ltd., priority 2022, published 2026).
# Entries after “also recorded” stand apart in the source; their conditions may differ. Like-named read-outs stand apart in the source and are kept apart here.
# Experiments:
# [1] = tested on: aggressive papillary thyroid cancer cells; assay: Proliferation of aggressive papillary thyroid cancer cells; format: cell-based; conditions: 10 nM and 100 nM, with respect to DMSO control
# Experimental: Chimera 9 (also referred to herein as Doxorubizen) was evaluated in two different concentrations (10 nM and 100 nM) on aggressive papillary thyroid cancer and with respect to the parent anticancer drug Doxorubicin.
# DND41 = assay: WST-1 proliferation assay, DND41; format: cell-based, human; conditions: Homo sapiens, DND41; WST-1, 48 hours of treatment
# Experimental: (§1) Albert Pinhasov (Ariel University, Ariel, Israel). […] Granta cells were kindly provided by Prof.
# (§2) Table 3 [resents the calculated IC50 values (μM) for each chimera in different hematological malignancies cell-lines. The proliferation rate was measured by WST-1 assay after 48 hours of treatment. The result shown for each concentration point represents the […]
# JEKO-1 = assay: WST-1 proliferation assay, JEKO-1; format: cell-based, human; conditions: Homo sapiens, JeKo-1; WST-1, 48 hours of treatment
# Experimental: as §1, §2
# HEL = assay: WST-1 proliferation assay, HEL; format: cell-based, human; conditions: Homo sapiens, HEL; WST-1, 48 hours of treatment
# Experimental: as §1, §2
# [2] = tested on: triple negative breast cancer (TNBC) MDA 231 cells; conditions: for weight maintenance, survival and tumor growth suppression compared with doxorubicin: ip administration
# Experimental: Five-week-old athymic Nude-Foxn 1nu male mice (ENVIGO Labs, Nes Ziona, Israel) were subcutaneously inoculated on the dorsal left side with […] (1×10^6 cell) into nu/nu mice, 0.2 mL per mouse) and tumors allowed to establish over time. When tumor volume reached 100 mm^3, Doxorubicin (Dox) and Doxorubizen (Chimera 9) were administered intraperitoneally (ip). Animals were removed from an experiment if either of the following conditions were fulfilled: reduction of 20% or more body weight; tumor volume>0.55 cm^3. The tumor dimensions were measured using a Vernier caliper and the volume was calculated according to the equation: Volume (mm^3) ¼ length×width×width×½ three times per week. The in vivo experiments were approved by the Animal Ethics Committee (Authorization number IL-179-06-19).
# Chimera 9 was also evaluated for its effect on breast cancer model. For this evaluation, […] nude female (6-8 weeks) mice (groups 1, 2, two mice per group, groups 3, 4, 5 three mice per group) were inoculated with triple negative breast cancer (TNBC) MDA 231 cells. Group 1 was used as the control for tumor growth. After 10 days, mice were […] (ip) administered with Doxorubicin (groups 2 and 4) and Chimera 9 (Doxorubizen) (groups 3 and 5) in the following regime: ip administration of 2.5 mg/kg Doxorubicin once per week (group 2) and three sequential days per week (group 4); ip administration of 3.5 mg/kg chimera 9 once per week (group 3) and three sequential days per week (group 5). Overall experiment carried out for 5 weeks and 4 days, when the tumor volumes for all the groups were monitored. Tumors were then resected and measured.
# BV-173 cells = assay: DNA damage by dual staining of pH2A.X and pATM; format: cell-based; conditions: 50 nM, 3 hours, compared to the parental drug
# Experimental: BV-173 cells (2×10^5 cells/well) were treated with DMSO, Doxorubicin or Doxorubizen. After incubation for 3 hours, phosphorylation level of ATM and H2AX was measured by Muse cell analyzer using Muse Multi-Color DNA Damage Kit (Luminex Corporation, Part number: MCH200107) according to manufacturer's instructions. Phosphorylation levels were determined using Guava software (Luminex/Millipore, USA, version 3.3).
# BV-173 cells were exposed to 50 nM chimera 9 or the non-conjugated drug Doxorubicin, and DNA damage was analyzed after 3 hours by using dual staining of phospho-Histone H2A.X (Ser139) and phospho-ATM (Ser1981) antibodies.
# [3] = tested on: OCI-AML3, KG-1a, Granta, Jeko-1 and BV-173 cells; assay: Apoptosis assay (Muse AnnexinV and Dead Cell kit); format: cell-based; conditions: 50-250 nM depending on cell line, 48 hours, compared to the parental drug
# Experimental: Cells were analyzed using the multifunctional Muse®AnnexinV and Dead Cell kit (Luminex/Millipore, Austin, Texas, USA). Cells were treated with indicated concentrations of Doxorubizen, the corresponding parent drug, or with DMSO. After 48 hours of incubation cells were harvested, washed twice in PBS, and 2×10^5 cells were stained with 100 μl of Muse AnnexinV and Dead Cell Reagent. Samples were incubated for 20 min at room temperature in the dark. Cells were analyzed by the Muse®CellAnalyzer system (Millipore, Billerica, MA, USA), and the percentage of apoptosis was determined using Guava software (Luminex/Millipore, USA, version 3.3).
# (§3) Chimera 9 was evaluated for its biological impact on mitochondrial function and cell death. To that end, the inventor treated the following cell lines OCI-AML3 (100 nM), KG-1a (100 nM), Granta (250 nM), Jeko-1 (50 nM) and BV-173 (50 nM) with doxorubicin or chimera 9.
# [4] = tested on: 10 hematological cell-lines; assay: In vitro cytotoxicity screening on the panel of hematological cell-lines (WST-1)
# Experimental: The above cells were cultured in RPMI medium (Gibco, Thermo Fisher Scientific Inc., USA). […] All media were supplemented with 10% heat-inactivated Fetal Bovine Serum (FBS, Biological industries, Israel), 2 mM glutamine (Biological industries, Israel) and 1% penicillin and streptomycin (Biological industries, Israel). Cells were cultured at 37° C. in a humidified incubator with 5% CO2.
# Growth inhibition in hematological malignancies cell-lines was measured by tetrazolium WST-1 assay (Roche, Basel, Switzerland). Cells (1*10^4) were treated with various concentrations of the specific chimera or parental drug. After 48 h of incubation, 10 μl of WST-1 reagent was added to the plate and incubated for 1 h at 37° C., at which point the absorbance (450 nm) was measured in an ELISA plate reader (Synergy HTX multi-mode reader, Winooski, Vermont, USA).
# MUTZ5 and MHH-CALL4; B-cell Acute lymphocytic leukemia (B-cell ALL) model. DND41; T-ALL model. KG-1a and OCI-AML-3; Acute myeloid leukemia (AML) model and HEL; erythroleukemia model.
# GRANTA = assay: WST-1 proliferation assay, GRANTA; format: cell-based; conditions: WST-1, 48 hours of treatment
# Experimental: as §1, §2
# MHH-CALL4 = assay: WST-1 proliferation assay, MHH-CALL4; format: cell-based, human; conditions: Homo sapiens, MHHCALL4; WST-1, 48 hours of treatment
# Experimental: as §1, §2
# MUTZ5 = assay: WST-1 proliferation assay, MUTZ5; format: cell-based, human; conditions: Homo sapiens; WST-1, 48 hours of treatment
# Experimental: as §1, §2
# [5] = tested on: OCI-AML3, KG-1a, Granta, Jeko-1 and BV-173 cells; assay: Mitochondrial depolarization (Muse Mitochondrial Kit); format: cell-based; conditions: 50-250 nM depending on cell line, 48 hours, compared to the parental drug
# Experimental: Changes in mitochondrial potential and cellular plasma membrane permeabilization, were determined with the Muse® Mitochondrial Kit (Luminex, USA). Briefly, Cells were treated with DMSO or the relevant chimera for 48 hours. The cells were incubated with MitoPotential working solution for 20 minutes at 37° C. in 5% CO2. Then, 5 μL Muse® MitoPotential 7-ADD reagent were added and the cells were incubated for 5 minutes at room temperature. The percentage of four cell populations: live (mitopotential+/7−AAD−), depolarized live (mitopotential−/7−AAD−), dead (mitopotential+/7−AAD+), and depolarized dead (mitopotential−/7−AAD+) were measured using the Muse® Cell Analyzer (Luminex, USA).
# as §3
# Rec-1 = assay: WST-1 proliferation assay, Rec-1; format: cell-based, human; conditions: Homo sapiens, Rec1; WST-1, 48 hours of treatment
# Experimental: as §1, §2
# MINO = assay: WST-1 proliferation assay, MINO; format: cell-based, human; conditions: Homo sapiens, MINO; WST-1, 48 hours of treatment
# Experimental: as §1, §2
# [6] = Group 5: ip 3.5 mg/kg, three sequential days per week
smiles,measurement,setting,value
"COC(=O)N(C)/N=N/c1ccc(CNC2CC(OC3CC(O)(C(=O)CO)Cc4c(O)c5c(c(O)c43)C(=O)c3c(OC)cccc3C5=O)OC(C)C2O)cc1 (stereo not shown) [Chimera 9, (E)-methyl-3-(4-(((3-hydroxy-2-methyl-6-((3,5,12-trihydroxy-3-(2-hydroxyacetyl)-10-methoxy-6,11-dioxo-1,2,3,4,6,11-hexahydrotetracen-1-yl)oxy)tetrahydro-2H-pyran-4-yl)amino)methyl)phenyl)-1-methyltriaz-2-ene-1-carboxylate]",proliferation of thyroid cancer cells,[1],reduce significantly the proliferation
same,IC50,DND41,640 nM
same,IC50,JEKO-1,850 nM
same,IC50,HEL,970 nM
same,outcome compared to Group 2 (Doxorubicin once per week),[2]; Group 3: ip 3.5 mg/kg once per week,no statistical significance
same,body weight,[2]; [6],didn't lose weight
same,toxicity vs doxorubicin,[2]; [6],reduced toxicity
same,tumor volume,[2]; [6],even reduced
same,survival,"[2]; Group 5: ip 3.5 mg/kg, three sequential days per week, 3.5 mg/kg",full survival; also recorded: survived until the end of the experiment
same,"weight maintenance, survival and tumor growth suppression compared with doxorubicin",[2],markedly superior
same,"weight maintenance, survival and tumor growth suppression compared with doxorubicin",[2]; listed as Doxorubizen,profoundly superior
same,DNA damage: co-activation of pH2A.X and pATM,BV-173 cells,significant co-activation of pH2A.X and pATM
same,rate of apoptosis,[3],substantial increase in the rate of apoptosis
same,cytotoxic effect,[4]; 250 nM,exceptional cytotoxic effect
same,effect on proliferation rate across the examined cell-lines,"[4]; 10 hematological cell-lines, WST-1",inhibited the proliferation rate in all the examined cell-lines
same,cytotoxic effect compared to the parental non-conjugated drug,[4]; chimera vs its parent drug,reduced proliferation rate of numerous cell-lines; also recorded: superior to Doxorubicin
same,IC50,GRANTA,2590 nM
same,IC50,MHH-CALL4,1140 nM
same,IC50,MUTZ5,520 nM
same,mitochondrial membrane potential,[5],significantly collapsed mitochondrial membrane potential
same,IC50,Rec-1,520 nM
same,IC50,MINO,480 nM
